From US7491819B1 (priority 2004, dated 2009) come the findings set out here.

Usually IC50 stands for the midpoint of a concentration-inhibition curve.

Where only a bound is given, the exact number is not on record here.

This assay concerns the target T1, HIV-integrase (Human immunodeficiency virus type 1 group M subtype B, UniProt P12497).
T1 construct: Recombinant integrase (0.26 ng) was incubated with the beads
Kind of assay: HIV-Integrase Inhibition Activity (SPA bead strand-transfer assay). Type of assay: biochemical. The conditions noted are these: Table 1; read-out: Activity (HIV-integrase inhibition, IC50 class). In short, it runs like this: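 Biotin-labelled substrate DNA (5 pmole) bound to streptavidin SPA beads, preloaded with recombinant integrase (0.26 ng) for 90 min at 37° C, then washed. Inhibitors and 0.1 fmol P33-labelled target DNA added; reaction stopped with 10 mM EDTA. Integration read as scintillation CPM.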
For the compound `CCC1(CC)OCCn2c1nc(C(=O)NCc1ccc(F)cc1S(=O)(=O)N(C)C)c(O)c2=O` [Example 205, Pyrimido[2,1-c][1,4]oxazine-2-carboxamide, N-[[2-[(dimethylamino)sulfonyl]-4-fluorophenyl]methyl]-9,9-diethyl-4,6,7,9-tetrahydro-3-hydroxy-4-oxo-], the IC50 fell in the range of 2 to 100 nM.

With `CC1(C)OCCCn2c1nc(C(=O)NCc1ccccc1N1CCCCS1(=O)=O)c(O)c2=O` [Example 206, 6H-pyrimido[2,1-c][1,4]oxazepine-2-carboxamide, 4,7,8,10-tetrahydro-3-hydroxy-10,10-dimethyl-4-oxo-N-[[2-(tetrahydro-1,1-dioxido-2H-1,2-thiazin-2-yl)phenyl]methyl]-], the half-maximal inhibitory concentration (IC50) lay within 2 to 100 nM.

Take `CCC1(CC)OCCn2c1nc(C(=O)NCc1ccccc1N1CCCCS1(=O)=O)c(O)c2=O` [Example 207, Pyrimido[2,1-c][1,4]oxazine-2-carboxamide, 4,6,7,9-tetrahydro-3-hydroxy-9,9-diethyl-4-oxo-N-[[2-(tetrahydro-1,1-dioxido-2H-1,2-thiazin-2-yl)phenyl]methyl]]: the concentration for half-maximal inhibition (IC50) lay within 2 to 100 nM.

For `CSCCC1OCCn2c1nc(C(=O)NCc1ccc(F)cc1)c(O)c2=O` (stereo not drawn) [Example 208, Pyrimido[2,1-c][1,4]oxazine-2-carboxamide, N-[(4-fluorophenyl)methyl]-4,6,7,9-tetrahydro-3-hydroxy-9-[2-(methylthio)ethyl]-4-oxo-], the concentration for half-maximal inhibition (IC50) is 2 to 100 nM.

With `CS(=O)(=O)CCC1OCCn2c1nc(C(=O)NCc1ccc(F)cc1)c(O)c2=O` (stereo not drawn) [Example 209, Pyrimido[2,1-c][1,4]oxazine-2-carboxamide, N-[(4-fluorophenyl)methyl]-4,6,7,9-tetrahydro-3-hydroxy-9-[2-(methylsulfonyl)ethyl]-4-oxo-], the IC50 lay in the range of 2 to 100 nM.

Regarding `Cc1cc(-c2cc(F)ccc2CNC(=O)c2nc3n(c(=O)c2O)CCOC3(C)C)on1` [Example 210, Pyrimido[2,1-c][1,4]oxazine-2-carboxamide, N-[[4-fluoro-2-(3-methyl-5-isoxazolyl)phenyl]methyl]-4,6,7,9-tetrahydro-3-hydroxy-9,9-dimethyl-4-oxo-], the half-maximal inhibitory concentration (IC50) lay in the range of 2 to 100 nM.

For the compound `C/C(N)=C/C(=O)c1cc(F)ccc1CNC(=O)c1nc2n(c(=O)c1O)CCOC2(C)C` [Example 211, Pyrimido[2,1-c][1,4]oxazine-2-carboxamide, N-[[2-[(2Z)-3-amino-1-oxo-2-butenyl]-4-fluorophenyl]methyl]-4,6,7,9-tetrahydro-3-hydroxy-9,9-dimethyl-4-oxo-], the IC50 is 2 to 100 nM.

Consider `CC1(C)OCCn2c1nc(C(=O)NCc1ccc(F)cc1-c1cc(Br)no1)c(O)c2=O` [Example 212, Pyrimido[2,1-c][1,4]oxazine-2-carboxamide, N-[[2-(3-bromo-5-isoxazolyl)-4-fluorophenyl]methyl]-4,6,7,9-tetrahydro-3-hydroxy-9,9-dimethyl-4-oxo-], for which the half-inhibitory concentration (IC50) was 2 to 100 nM.

With `CON(Cc1ccc(F)cc1)C(=O)c1nc2n(c(=O)c1O)CCOC2(C)C` [Example 214, Pyrimido[2,1-c][1,4]oxazine-2-carboxamide, N-[(4-fluorophenyl)methyl]-4,6,7,9-tetrahydro-3-hydroxy-N-methoxy-9,9-dimethyl-4-oxo-], the IC50 was more than 1000 nM.

On to `CC1(C)OCCn2c1nc(C(=O)NCc1ccccc1N1CCCCS1(=O)=O)c(O)c2=O` [Example 215, Pyrimido[2,1-c][1,4]oxazine-2-carboxamide, 4,6,7,9-tetrahydro-3-hydroxy-9,9-dimethyl-4-oxo-N-[[2-(tetrahydro-1,1-dioxido-2H-1,2-thiazin-2-yl)phenyl]methyl]-], for which the IC50 fell in the range of 2 to 100 nM.

Consider `CC1(C)OCCn2c1nc(C(=O)NCc1ccccc1-n1cncn1)c(O)c2=O` [Example 216, Pyrimido[2,1-c][1,4]oxazine-2-carboxamide, 4,6,7,9-tetrahydro-3-hydroxy-9,9-dimethyl-4-oxo-N-[[2-(1H-1,2,4-triazol-1-yl)phenyl]methyl]-], for which the IC50 is 2 to 100 nM.

With `CC1(C)OCCn2c1nc(C(=O)NCCCc1ccccc1)c(O)c2=O` [Example 217, Pyrimido[2,1-c][1,4]oxazine-2-carboxamide, 4,6,7,9-tetrahydro-3-hydroxy-9,9-dimethyl-4-oxo-N-(3-phenylpropyl)-], the IC50 was 2 to 100 nM.

Turning to `CC1(C)OCCn2c1nc(C(=O)NCc1ccc3c(c1)OCO3)c(O)c2=O` [Example 218, Pyrimido[2,1-c][1,4]oxazine-2-carboxamide, N-(1,3-benzodioxol-5-ylmethyl)-4,6,7,9-tetrahydro-3-hydroxy-9,9-dimethyl-4-oxo-], the IC50 fell in the range of 2 to 100 nM.

For `CC1(C)OCCn2c1nc(C(=O)NCc1ccccc1)c(O)c2=O` [Example 219, Pyrimido[2,1-c][1,4]oxazine-2-carboxamide, 4,6,7,9-tetrahydro-3-hydroxy-9,9-dimethyl-4-oxo-N-(phenylmethyl)-], the IC50 fell in the range of 2 to 100 nM.

Turning to `CC1(C)OCCn2c1nc(C(=O)NCc1cccc(F)c1)c(O)c2=O` [Example 220, Pyrimido[2,1-c][1,4]oxazine-2-carboxamide, N-[(3-fluorophenyl)methyl]-4,6,7,9-tetrahydro-3-hydroxy-9,9-dimethyl-4-oxo-], the 50% inhibitory concentration (IC50) lay within 2 to 100 nM.

For the compound `CC1(C)OCCn2c1nc(C(=O)NCc1ccc(Cl)c(Cl)c1)c(O)c2=O` [Example 221, Pyrimido[2,1-c][1,4]oxazine-2-carboxamide, N-[(3,4-dichlorophenyl)methyl]-4,6,7,9-tetrahydro-3-hydroxy-9,9-dimethyl-4-oxo-], the half-inhibitory concentration (IC50) lay in the range of 2 to 100 nM.

On to `COc1cccc(CNC(=O)c2nc3n(c(=O)c2O)CCOC3(C)C)c1` [Example 222, Pyrimido[2,1-c][1,4]oxazine-2-carboxamide, 4,6,7,9-tetrahydro-3-hydroxy-N-[(3-methoxyphenyl)methyl]-9,9-dimethyl-4-oxo-], for which the concentration for half-maximal inhibition (IC50) fell in the range of 2 to 100 nM.

Consider `Cc1cccc(CNC(=O)c2nc3n(c(=O)c2O)CCOC3(C)C)c1` [Example 223, Pyrimido[2,1-c][1,4]oxazine-2-carboxamide, 4,6,7,9-tetrahydro-3-hydroxy-9,9-dimethyl-N-[(3-methylphenyl)methyl]-4-oxo-], for which the half-inhibitory concentration (IC50) lay within 2 to 100 nM.

As to `CC1(C)OCCn2c1nc(C(=O)NCc1cc(F)ccc1F)c(O)c2=O` [Example 224, Pyrimido[2,1-c][1,4]oxazine-2-carboxamide, N-[(2,5-difluorophenyl)methyl]-4,6,7,9-tetrahydro-3-hydroxy-9,9-dimethyl-4-oxo-], the 50% inhibitory concentration (IC50) fell in the range of 2 to 100 nM.

With `COc1cc(CNC(=O)c2nc3n(c(=O)c2O)CCOC3(C)C)ccc1O` [Example 225, Pyrimido[2,1-c][1,4]oxazine-2-carboxamide, 4,6,7,9-tetrahydro-3-hydroxy-N-[(4-hydroxy-3-methoxyphenyl)methyl]-9,9-dimethyl-4-oxo-], the concentration for half-maximal inhibition (IC50) lay in the range of 2 to 100 nM.

On to `CC1(C)OCCn2c1nc(C(=O)NCc1cccc(Cl)c1)c(O)c2=O` [Example 226, Pyrimido[2,1-c][1,4]oxazine-2-carboxamide, N-[(3-chlorophenyl)methyl]-4,6,7,9-tetrahydro-3-hydroxy-9,9-dimethyl-4-oxo-], for which the half-inhibitory concentration (IC50) is 2 to 100 nM.

For `CC1(C)OCCn2c1nc(C(=O)NCc1cccc(Cl)c1Cl)c(O)c2=O` [Example 227, Pyrimido[2,1-c][1,4]oxazine-2-carboxamide, N-[(2,3-dichlorophenyl)methyl]-4,6,7,9-tetrahydro-3-hydroxy-9,9-dimethyl-4-oxo-], the half-maximal inhibitory concentration (IC50) was in the range of 2 to 100 nM.

For the compound `CC1(C)OCCn2c1nc(C(=O)NCc1cc(Cl)ccc1Cl)c(O)c2=O` [Example 228, Pyrimido[2,1-c][1,4]oxazine-2-carboxamide, N-[(2,5-dichlorophenyl)methyl]-4,6,7,9-tetrahydro-3-hydroxy-9,9-dimethyl-4-oxo-], the IC50 was in the range of 2 to 100 nM.

For the compound `COc1cccc(CNC(=O)c2nc3n(c(=O)c2O)CCOC3(C)C)c1OC` [Example 229, Pyrimido[2,1-c][1,4]oxazine-2-carboxamide, N-[(2,3-dimethoxyphenyl)methyl]-4,6,7,9-tetrahydro-3-hydroxy-9,9-dimethyl-4-oxo-], the IC50 was 2 to 100 nM.

Take `CC1(C)OCCn2c1nc(C(=O)NCc1ccc3c(c1)OCCO3)c(O)c2=O` [Example 230, Pyrimido[2,1-c][1,4]oxazine-2-carboxamide, N-[(2,3-dihydro-1,4-benzodioxin-6-yl)methyl]-4,6,7,9-tetrahydro-3-hydroxy-9,9-dimethyl-4-oxo-]: the IC50 fell in the range of 2 to 100 nM.

As for `Cc1ccc(CNC(=O)c2nc3n(c(=O)c2O)CCOC3(C)C)cc1Cl` [Example 231, Pyrimido[2,1-c][1,4]oxazine-2-carboxamide, N-[(3-chloro-4-methylphenyl)methyl]-4,6,7,9-tetrahydro-3-hydroxy-9,9-dimethyl-4-oxo-], the IC50 is 2 to 100 nM.

Take `COc1ccc(CNC(=O)c2nc3n(c(=O)c2O)CCOC3(C)C)c(OC)c1` [Example 232, Pyrimido[2,1-c][1,4]oxazine-2-carboxamide, N-[(2,4-dimethoxyphenyl)methyl]-4,6,7,9-tetrahydro-3-hydroxy-9,9-dimethyl-4-oxo-]: the half-maximal inhibitory concentration (IC50) is 2 to 100 nM.

On to `Cc1cccc(CNC(=O)c2nc3n(c(=O)c2O)CCOC3(C)C)c1C` [Example 233, Pyrimido[2,1-c][1,4]oxazine-2-carboxamide, N-[(2,3-dimethylphenyl)methyl]-4,6,7,9-tetrahydro-3-hydroxy-9,9-dimethyl-4-oxo-], for which the 50% inhibitory concentration (IC50) fell in the range of 2 to 100 nM.

Turning to `COc1ccc(OC)c(CNC(=O)c2nc3n(c(=O)c2O)CCOC3(C)C)c1` [Example 235, Pyrimido[2,1-c][1,4]oxazine-2-carboxamide, N-[(2,5-dimethoxyphenyl)methyl]-4,6,7,9-tetrahydro-3-hydroxy-9,9-dimethyl-4-oxo-], the concentration for half-maximal inhibition (IC50) lay in the range of 2 to 100 nM.

With `Cc1c(Cl)cccc1CNC(=O)c1nc2n(c(=O)c1O)CCOC2(C)C` [Example 236, Pyrimido[2,1-c][1,4]oxazine-2-carboxamide, N-[(3-chloro-2-methylphenyl)methyl]-4,6,7,9-tetrahydro-3-hydroxy-9,9-dimethyl-4-oxo-], the IC50 was 2 to 100 nM.
